Test [1] has as its target T1, kappa opioid receptors (Cavia porcellus, UniProt P41144).
T1 construct: fresh guinea pig brain homogenate; from tissue; host or cells: guinea pig whole brain without cerebellum, homogenate
The test can be described thus: biochemical. It counts as binding, guinea pig.

In test [2] the target is μ opioid receptor (Cavia porcellus, UniProt A0ACM8Q262). The test can be described thus: Binding to μ sites (3H-DAGO), receptor affinity study. Details: species or system guinea pig.
Sequence of μ opioid receptor (A0ACM8Q262 1-400): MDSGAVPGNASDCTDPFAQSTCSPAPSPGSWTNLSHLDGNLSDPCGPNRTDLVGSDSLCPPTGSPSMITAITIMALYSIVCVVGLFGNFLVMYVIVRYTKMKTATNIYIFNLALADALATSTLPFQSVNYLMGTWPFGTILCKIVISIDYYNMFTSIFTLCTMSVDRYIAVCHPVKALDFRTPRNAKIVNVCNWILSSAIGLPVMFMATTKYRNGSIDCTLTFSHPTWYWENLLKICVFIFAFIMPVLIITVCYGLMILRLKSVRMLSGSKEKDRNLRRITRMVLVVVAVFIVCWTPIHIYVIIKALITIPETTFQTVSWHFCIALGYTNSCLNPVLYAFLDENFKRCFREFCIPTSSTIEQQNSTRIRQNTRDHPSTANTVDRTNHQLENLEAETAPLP
Test [3] has as its system mice (tail-flick). Kind of test: animal or person. Format: in vivo. Conditions: Mus musculus, sc, 0.5 h, read-out: ANALGESIA TAIL-FLICK ED50 (a).
The subject of test [4] is mice (p-phenylquinone-induced abdominal writhing). Kind of test: P-phenylquinone-induced abdominal writhing test in mice. Format: in vivo. Conditions: Mus musculus, sc, p-phenylquinone i.p. 2 mg/Kg after 20 min pretreatment, calculated for the free base, read-out: ANALGESIA WRITHING ED50 (a). Here is the method: P-phenylquinone-induced abdominal writhing test in mice
The methodology employed is based on that described by Sigmund et al, Proc. Soc. Exptl. Biol. 95, 729/1957, modified by Milne and Twomey, Agents and Actions, 10, 31/1980.
Male Charles River mice (Swiss Strain), 25-36 g body weight, are used. Animals are allowed food and water ad libitum and are randomized into groups of 10 prior to experimentation. Test compounds are dissolved in either distilled water or distilled water plus 0.1M AMS, and administered by the subcutaneous route in a final volume of 10 ml/Kg. Control animals receive 10 ml/Kg of the appropriate vehicle alone. Following a pretreatment period of 20 min., mice are injected intraperitoneally with p-phenylquinone, 2 mg/Kg at 37° C. in a final volume of […]. Next, the mice are placed, in a groups of 3, in a compartmented perspex box maintained at room temperature and are observed for a period of 8 min. During this period the number of abdominal writhing responses per animal are recorded where writhing consists of an intermittent contraction of the abdomen associated with hind leg extension.
The degree of antinociceptive protection afforded by the test compound is determined as the mean number of writhing responses observed in the treated group (T) expressed as a percentage of the mean number of writhing responses in the control group (C) according to the following formula:
[1-(T/C)]×100%=% graded protection.

The mark [5] stands for this setting: read-out: OPIATE RECEPTORS BINDING ki MU; guinea pig brain homogenate; 3H-DAGO; 40 min, 25° C.
[6] abbreviates: read-out: OPIATE RECEPTORS BINDING ki MU.

Structures can show the parent of a compound that is named as a salt. Where two headings read alike, the source gives them in different places. Bounds are passed on as bounds.

T1 sequence (P41144 whole entry): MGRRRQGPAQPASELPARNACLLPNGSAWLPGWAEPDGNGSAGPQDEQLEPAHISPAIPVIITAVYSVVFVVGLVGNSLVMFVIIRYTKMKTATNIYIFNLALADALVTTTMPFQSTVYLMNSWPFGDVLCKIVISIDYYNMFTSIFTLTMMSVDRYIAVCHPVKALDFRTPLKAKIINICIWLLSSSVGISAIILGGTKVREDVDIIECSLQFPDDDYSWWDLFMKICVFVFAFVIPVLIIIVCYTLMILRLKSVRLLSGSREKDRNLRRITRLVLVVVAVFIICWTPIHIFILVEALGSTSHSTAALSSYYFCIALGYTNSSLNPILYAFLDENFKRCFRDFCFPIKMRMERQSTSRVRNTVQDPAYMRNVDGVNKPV

For the compound `O=C(Cc1ccc(Cl)c(Cl)c1)N1CCc2sccc2C1CN1CCCC1` (single isomer, unassigned) [Example 9, (-)-4-(pyrrolidin-1-yl)methyl-5-(3,4-dichlorophenyl)acetyl-4,5,6,7-tetrahydrothieno[3,2-c]pyridine D(-) tartrate hemihydrate], the results for the inhibition constant (Ki) in test [1] and in test [2] (setting [5]) were 1.07 nM and 47.2 nM, respectively. The ED50 (in general, the midpoint of the dose-response relation) in test [3] is 0.007 mg/kg; in test [4] it was 0.003 mg/kg.

`O=C(Cc1ccc(Cl)c(Cl)c1)N1CCc2sccc2C1CN1CCCCC1` (single isomer, unassigned) [Example 10, (-)-4-(piperidin-1-yl)methyl-5-(3,4-dichlorophenyl)acetyl-4,5,6,7-tetrahydrothieno[3,2-c]pyridine L(+) tartrate hemihydrate]: the Ki (in general, a dissociation constant, usually derived from enzyme kinetics or from competition with a known ligand) in test [2] (setting [6]) worked out at 500 nM. The ED50 in test [3] is 0.041 mg/kg; in test [4] it was 0.01 mg/kg.

Regarding `O=C(Cc1ccc(C(F)(F)F)cc1)N1CCc2sccc2C1CN1CCCCC1` (single isomer, unassigned) [Example 13, (-)-4-(piperidin-1-yl)methyl-5-(4-trifluoromethylphenyl)acetyl-4,5,6,7-tetrahydrothieno[3,2-c]pyridine L(+) tartrate monohydrate], the Ki in test [2] (setting [5]) amounted to 468 nM. The ED50 in test [3] is 0.054 mg/kg; in test [4], 0.01 mg/kg.

In the case of `CC(C1c2ccsc2CCN1C(=O)Cc1ccc(Cl)c(Cl)c1)N(C)C.Cl` (single isomer, unassigned) [Example 18, 4-[1-(dimethylamino)ethyl]-5-(3,4-dichlorophenyl)acetyl-4,5,6,7-tetrahydrothieno[3,2-c]pyridine hydrochloride], the figures for the ED50 in test [3] and in test [4] were 0.824 mg/kg and 0.204 mg/kg, respectively.

Take `Cl.O.O=C(Cc1ccc(Cl)c(Cl)c1)N1CCc2sccc2C1CN1CCCC1` (stereo not shown) [Example 3, 4-(pyrrolidin-1-yl)methyl-5-(3,4-dichlorophenyl)acetyl-4,5,6,7-tetrahydrothieno[3,2-c]pyridine hydrochloride monohydrate]: the figures for the Ki in test [1] and in test [2] (setting [5]) were 1.19 nM and 85 nM, respectively. For the same compound, the ED50 in test [3] was 0.019 mg/kg; in test [4] it was 0.004 mg/kg.

For the compound `Cl.O=C(Cc1ccc(C(F)(F)F)cc1)N1CCc2sccc2C1CN1CCCC1` (stereo not shown) [Example 4, 4-(pyrrolidin-1-yl)methyl-5-(4-trifluoromethylphenyl)acetyl-4,5,6,7-tetrahydrothieno[3,2-c]pyridine hydrochloride], the Ki in test [1] amounted to 1.78 nM; in test [2] (setting [5]), 39.2 nM. For the same compound, the ED50 in test [3] is 0.018 mg/kg; in test [4], 0.004 mg/kg.

On to `Cl.O=C(Cc1ccc(Cl)c(Cl)c1)N1CCc2sccc2C1CN1CCCCC1` (stereo not shown) [Example 5, 4-(piperidin-1-yl)methyl-5-(3,4-dichlorophenyl)acetyl-4,5,6,7-tetrahydrothieno[3,2-c]pyridine hydrochloride], for which the Ki in test [1] was 1.29 nM; in test [2] (setting [5]), 781 nM. Moreover, the ED50 in test [3] is 0.09 mg/kg; in test [4], 0.022 mg/kg.

With `CN(C)CC1c2ccsc2CCN1C(=O)Cc1ccc(Cl)c(Cl)c1.Cl` (stereo not shown) [Example 6, 4-dimethylaminomethyl-5-(3,4-dichlorophenyl)acetyl-4,5,6,7-tetrahydrothieno[3,2-c]pyridine hydrochloride], the Ki stood at 1.75 nM in test [1] and 607 nM in test [2] (setting [5]). The ED50 in test [3] amounted to 0.042 mg/kg.

With `CN(C)CC1c2ccsc2CCN1C(=O)Cc1ccc(C(F)(F)F)cc1` (stereo not shown) [Example 7, 4-dimethylaminomethyl-5-(4-trifluoromethylphenyl)acetyl-4,5,6,7-tetrahydrothieno[3,2-c]pyridine 1.5 hydrochloride 1/3 hydrate], the Ki is 3.46 nM in test [1] and 513 nM in test [2] (setting [6]). Further, in test [3], the 50% effective dose (ED50) amounted to 0.093 mg/kg.

In the case of `O=C(Cc1ccc(C(F)(F)F)cc1)N1CCc2sccc2C1CN1CCCCC1` (stereo not shown) [Example 12, 4-(piperidin-1-yl)methyl-5-(4-trifluoromethylphenyl)acetyl-4,5,6,7-tetrahydrothieno[3,2-c]pyridine], the inhibition constant Ki in test [2] (setting [5]) was found to be 793 nM. In addition, the ED50 in test [3] was 0.09 mg/kg; in test [4], 0.034 mg/kg.

In the case of `O=C(Cc1ccc(Cl)c(Cl)c1)N1CCc2[nH]c3ccccc3c2C1CN1CCCC1` (stereo not shown) [Example 15, 1-(pyrrolidin-1-yl)methyl-2-(3,4-dichlorophenyl)acetyl-1,2,3,4-tetrahydro-5H-pyrido[4,3-b]indole hydrochloride hemihydrate], the ED50 in test [3] and in test [4] was more than 10 mg/kg throughout.

As to `O=C(Cc1ccc(Cl)c(Cl)c1)N1CCc2[nH]c3ccccc3c2C1CN1CCCCC1` (stereo not shown) [Example 16, 1-(piperidin-1-yl)methyl-2-(3,4-dichlorophenyl)acetyl-1,2,3,4-tetrahydro-5H-pyrido[4,3-b]indole], the ED50 in test [3] and in test [4] was more than 10 mg/kg each time.

Regarding `O=C(Cc1ccc2c(c1)CCCC2)N1CCc2sccc2C1CN1CCCCC1` (stereo not shown) [Example 19, 4-(piperidin-1-yl)methyl-5-(5,6,7,8-tetrahydronapht-2-yl) acetyl-4,5,6,7-tetrahydrothieno[3,2-c]pyridine hydrochloride hemihydrate], the 50% effective dose (ED50) is 0.22 mg/kg in test [3] and 0.092 mg/kg in test [4].

Regarding `O=C(Cc1ccc2c(c1)CCC2)N1CCc2sccc2C1CN1CCCCC1` (stereo not shown) [Example 20, 4-(piperidin-1-yl)methyl-5-(indan-5-yl)acetyl-4,5,6,7-tetrahydrothieno[3,2-c]pyridine hydrochloride 1/3 hydrate], the 50% effective dose (ED50) in test [3] is 0.412 mg/kg; in test [4] it was 0.092 mg/kg.

As for `O=C(Cc1ccc2c(c1)CCCC2)N1CCc2sccc2C1CN1CCCC1` (stereo not shown) [Example 21, 4-(pyrrolidin-1-yl)methyl-5-(5,6,7,8-tetrahydronapht-2-yl) acetyl-4,5,6,7-tetrahydrothieno[3,2-c]pyridine hydrochloride], in test [2] (setting [5]), the inhibition constant (Ki) came out at 56 nM. In addition, the median effective dose (ED50) is 0.236 mg/kg in test [3] and 0.022 mg/kg in test [4].

Take `Cl.O=C(Cc1ccc2c(c1)CCC2)N1CCc2sccc2C1CN1CCCC1` (stereo not shown) [Example 22, 4-(pyrrolidin-1-yl)methyl-5-(indan-5-yl)acetyl-4,5,6,7-tetrahydrothieno[3,2-c]pyridine hydrochloride]: the Ki in test [2] (setting [5]) turned out to be 104 nM. The ED50 is 0.146 mg/kg in test [3] and 0.014 mg/kg in test [4].

`O=C(Cc1ccc(Cl)c(Cl)c1)N1CCc2[nH]cnc2C1CN1CCCC1` (stereo not shown) [Example 23, 4-(pyrrolidin-1-yl)methyl-5-(3,4-dichlorophenyl)acetyl-4,5,6,7-tetrahydroimidazo[4,5-c]pyridine]: in test [2] (guinea pig brain homogenate; 3H-DAGO; 40 min, 25° C.; read-out: OPIATE RECEPTORS BINDING ki MU), the inhibition constant Ki was more than 1000 nM. Also, in test [3], the ED50 is more than 50 mg/kg.

The values above are taken from patent US4999359A, “Heterocyclic ethylene diamine compounds and their pharmaceutical compositions and methods” (Dr. Lo Zambeletti S.p.A., priority 1988, dated 1991).
